For test [1], the target named is METTL3/METTL14 (Homo sapiens, UniProt Q86U44). The experiment in a line: METTL3-14 standard enzyme assay (3H-SAM flashplate). The conditions noted are these: METTL3 biochemical assay. The method in brief: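 METTL3/METTL14 (2.5 nM) preincubated 5 min, then reacted with 3′-biotinylated RNA UCUGGACUAAA (100 nM) and 3H-SAM (100 nM) for 30 min at ambient temperature in 20 mM HEPES pH 7.5, 50 mM KCl, 250 μM MgCl2, 1 mM DTT. Quenched with 15 μM cold SAM; product captured on streptavidin flashplates, scintillation counted.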
Sequence of METTL3/METTL14 (Q86U44 whole entry, species assumed): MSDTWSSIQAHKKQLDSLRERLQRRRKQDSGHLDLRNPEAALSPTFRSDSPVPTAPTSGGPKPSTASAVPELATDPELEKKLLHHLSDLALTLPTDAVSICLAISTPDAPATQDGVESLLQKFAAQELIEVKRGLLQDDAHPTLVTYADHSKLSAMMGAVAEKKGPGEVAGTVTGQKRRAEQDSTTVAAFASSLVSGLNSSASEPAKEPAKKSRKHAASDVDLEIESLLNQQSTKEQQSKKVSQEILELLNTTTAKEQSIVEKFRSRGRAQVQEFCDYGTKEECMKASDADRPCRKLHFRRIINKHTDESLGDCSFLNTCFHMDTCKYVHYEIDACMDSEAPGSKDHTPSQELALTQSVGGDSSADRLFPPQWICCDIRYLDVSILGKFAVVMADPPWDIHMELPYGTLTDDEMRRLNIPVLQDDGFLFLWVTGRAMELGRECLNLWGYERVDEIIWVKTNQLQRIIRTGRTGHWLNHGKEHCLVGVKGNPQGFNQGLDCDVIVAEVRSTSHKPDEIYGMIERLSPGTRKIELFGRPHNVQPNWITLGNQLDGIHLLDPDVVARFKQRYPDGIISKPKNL
Sequence of METTL3/METTL14 (Q9HCE5 whole entry partner, species assumed): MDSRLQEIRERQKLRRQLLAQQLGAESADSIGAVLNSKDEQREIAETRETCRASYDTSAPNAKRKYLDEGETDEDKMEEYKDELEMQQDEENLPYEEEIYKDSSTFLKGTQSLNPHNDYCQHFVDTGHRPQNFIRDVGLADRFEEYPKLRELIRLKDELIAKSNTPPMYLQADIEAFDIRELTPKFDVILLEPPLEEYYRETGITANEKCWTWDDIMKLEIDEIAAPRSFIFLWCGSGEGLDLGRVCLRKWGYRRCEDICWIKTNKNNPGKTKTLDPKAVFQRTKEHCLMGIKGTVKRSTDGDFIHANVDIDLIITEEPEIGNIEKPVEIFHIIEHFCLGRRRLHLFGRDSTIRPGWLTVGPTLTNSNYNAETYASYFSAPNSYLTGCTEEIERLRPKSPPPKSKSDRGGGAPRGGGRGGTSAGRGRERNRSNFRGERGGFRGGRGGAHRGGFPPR

In test [2] the test system is m^6A in cellular mRNA of MOLM-13 cells. The experiment in a line: m^6A-mRNA LC-MS/MS assay (m^6A cellular assay). In kind it is cell-based. The conditions noted are these: Homo sapiens, Table 3, 24 hours. Here is the method:
5×10^6 MOLM-13 (DSMZ) cells were seeded into 10 cm dishes in RPMI 1640 media containing 10% fetal bovine serum and placed in a humidified tissue culture incubator at 37° C. overnight. Compounds were resuspended in 100% DMSO and dosed into each dish at a fixed concentration to comprise an 8-point dose response with a 4-fold serial dilution ranging from 25 μM to 1.5 nM in 0.25% DMSO final and allowed to incubate for 24 hours in a humidified tissue culture incubator at 37° C. Cells were harvested by centrifugation followed by mRNA extraction using DIRECT Dynabeads mRNA DIRECT kit (Life Technologies). mRNA was quantified on NanoDrop spectrophotometer (Thermo Fisher Scientific) and digested into single nucleosides using Nucleoside Digestion Mix (New England Biolabs). Nucleosides are quantified with retention time on a BEH C18 column (Waters) and the nucleoside-to-base ion mass transition of 282.1-150.1 (m^6A) and 268-136 (A) on an API 6500+ triple quadrupole mass spectrometer. Quantification is performed in comparison with the standard curve, obtained from pure nucleoside standards (Selleck Chemicals) running with the same batch of samples. Percentage m^6A in cellular mRNA is calculated as 100*(m^6A/A).

For test [3], the target named is PRMT5-MEP50 (Homo sapiens, UniProt O14744). The test can be described thus: PRMT5 assay (3H-SAM flashplate). The conditions noted are these: PRMT5 biochemical assay. The method in brief: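 PRMT5-MEP50 at 2.5 nM, preincubated 5 min with compound in 20 mM Tris-HCl pH 8.0, 1 mM DTT, 0.01% Tween at ambient temperature. Biotinylated acetylated histone H4 peptide (100 nM) and 3H-SAM (250 nM) react 60 min, quenched with 15 μM cold SAM; methylation captured on streptavidin flashplates and scintillation-counted.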
Sequence of PRMT5-MEP50 (O14744 whole entry): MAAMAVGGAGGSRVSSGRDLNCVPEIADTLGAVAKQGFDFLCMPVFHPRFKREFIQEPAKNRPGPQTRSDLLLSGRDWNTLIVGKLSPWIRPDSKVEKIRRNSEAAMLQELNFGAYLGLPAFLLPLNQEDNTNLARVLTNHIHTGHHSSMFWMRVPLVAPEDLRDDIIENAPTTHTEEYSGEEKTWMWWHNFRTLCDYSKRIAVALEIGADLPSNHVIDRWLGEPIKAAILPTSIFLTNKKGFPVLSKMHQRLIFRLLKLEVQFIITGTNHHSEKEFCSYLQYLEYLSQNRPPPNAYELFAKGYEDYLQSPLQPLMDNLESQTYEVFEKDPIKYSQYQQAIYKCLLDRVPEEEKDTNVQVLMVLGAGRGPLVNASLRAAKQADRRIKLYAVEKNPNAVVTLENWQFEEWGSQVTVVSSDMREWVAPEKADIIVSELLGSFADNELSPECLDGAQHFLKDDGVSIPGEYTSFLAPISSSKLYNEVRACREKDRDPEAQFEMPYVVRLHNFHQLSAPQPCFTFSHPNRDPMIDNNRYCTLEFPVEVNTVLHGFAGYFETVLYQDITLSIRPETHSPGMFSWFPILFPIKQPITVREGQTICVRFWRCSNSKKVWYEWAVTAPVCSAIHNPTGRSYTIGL
Sequence of PRMT5-MEP50 (Q9BQA1 whole entry partner): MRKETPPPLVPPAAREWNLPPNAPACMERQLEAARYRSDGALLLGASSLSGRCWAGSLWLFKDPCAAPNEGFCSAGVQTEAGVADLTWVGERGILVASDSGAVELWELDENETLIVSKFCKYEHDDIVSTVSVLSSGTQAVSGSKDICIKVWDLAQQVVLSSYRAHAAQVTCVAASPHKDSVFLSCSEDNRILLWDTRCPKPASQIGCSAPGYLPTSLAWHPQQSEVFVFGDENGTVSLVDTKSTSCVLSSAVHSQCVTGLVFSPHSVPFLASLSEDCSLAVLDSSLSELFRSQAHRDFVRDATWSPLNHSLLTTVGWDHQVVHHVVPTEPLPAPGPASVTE

For test [4], the target named is T1, FLT3-ITD (Homo sapiens, UniProt P36888).
T1 sequence (P36888 1-993): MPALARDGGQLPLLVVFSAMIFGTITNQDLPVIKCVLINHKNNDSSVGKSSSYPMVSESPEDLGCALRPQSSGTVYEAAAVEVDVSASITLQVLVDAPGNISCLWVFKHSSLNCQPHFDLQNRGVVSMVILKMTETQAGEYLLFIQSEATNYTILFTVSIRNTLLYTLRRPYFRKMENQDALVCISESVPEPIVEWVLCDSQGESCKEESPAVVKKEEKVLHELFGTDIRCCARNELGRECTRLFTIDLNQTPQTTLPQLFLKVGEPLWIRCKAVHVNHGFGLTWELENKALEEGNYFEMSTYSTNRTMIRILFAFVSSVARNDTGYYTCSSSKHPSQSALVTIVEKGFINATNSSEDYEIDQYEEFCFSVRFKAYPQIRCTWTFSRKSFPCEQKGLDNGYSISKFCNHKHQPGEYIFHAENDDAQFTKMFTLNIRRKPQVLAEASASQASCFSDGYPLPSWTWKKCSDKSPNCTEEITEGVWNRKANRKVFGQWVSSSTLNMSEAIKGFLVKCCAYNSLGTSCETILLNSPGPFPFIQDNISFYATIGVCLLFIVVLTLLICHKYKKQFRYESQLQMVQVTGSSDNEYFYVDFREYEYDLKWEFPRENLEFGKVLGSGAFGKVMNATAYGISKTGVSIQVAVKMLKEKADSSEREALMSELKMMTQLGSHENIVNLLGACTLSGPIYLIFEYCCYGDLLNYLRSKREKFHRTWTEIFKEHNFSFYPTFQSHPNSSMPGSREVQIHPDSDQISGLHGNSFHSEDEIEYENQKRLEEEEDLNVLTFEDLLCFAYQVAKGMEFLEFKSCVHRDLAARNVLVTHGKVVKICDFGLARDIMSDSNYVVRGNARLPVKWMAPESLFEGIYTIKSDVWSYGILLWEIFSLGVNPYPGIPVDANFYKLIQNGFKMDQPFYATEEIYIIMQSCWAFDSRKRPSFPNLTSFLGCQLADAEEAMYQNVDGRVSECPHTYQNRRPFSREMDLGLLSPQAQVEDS
The test can be described thus: FLT3-ITD LanthaScreen assay. In kind it is biochemical. The conditions noted are these: Table 4. The method in brief: (§1)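 Buffer 50 mM Hepes pH 7.5, 2 mM DTT, 10 mM MgCl2, 0.01% Tween, 0.01% BSA; FLT3 ([…].) or FLT3-ITD ([…].) preincubated 10 min with compound. Fluorescein-poly GT (200 nM) and ATP (57 μM) added, 40 min at ambient temperature; stopped with EDTA and Tb-anti-pTyr pY20, TR-FRET read 495/520 nm.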
Background: Time-resolved FRET reads energy transfer from a long-lived donor to a nearby acceptor.

In test [5] the target is T2, FLT3 (Homo sapiens, UniProt P36888).
T2 sequence (P36888 27-993): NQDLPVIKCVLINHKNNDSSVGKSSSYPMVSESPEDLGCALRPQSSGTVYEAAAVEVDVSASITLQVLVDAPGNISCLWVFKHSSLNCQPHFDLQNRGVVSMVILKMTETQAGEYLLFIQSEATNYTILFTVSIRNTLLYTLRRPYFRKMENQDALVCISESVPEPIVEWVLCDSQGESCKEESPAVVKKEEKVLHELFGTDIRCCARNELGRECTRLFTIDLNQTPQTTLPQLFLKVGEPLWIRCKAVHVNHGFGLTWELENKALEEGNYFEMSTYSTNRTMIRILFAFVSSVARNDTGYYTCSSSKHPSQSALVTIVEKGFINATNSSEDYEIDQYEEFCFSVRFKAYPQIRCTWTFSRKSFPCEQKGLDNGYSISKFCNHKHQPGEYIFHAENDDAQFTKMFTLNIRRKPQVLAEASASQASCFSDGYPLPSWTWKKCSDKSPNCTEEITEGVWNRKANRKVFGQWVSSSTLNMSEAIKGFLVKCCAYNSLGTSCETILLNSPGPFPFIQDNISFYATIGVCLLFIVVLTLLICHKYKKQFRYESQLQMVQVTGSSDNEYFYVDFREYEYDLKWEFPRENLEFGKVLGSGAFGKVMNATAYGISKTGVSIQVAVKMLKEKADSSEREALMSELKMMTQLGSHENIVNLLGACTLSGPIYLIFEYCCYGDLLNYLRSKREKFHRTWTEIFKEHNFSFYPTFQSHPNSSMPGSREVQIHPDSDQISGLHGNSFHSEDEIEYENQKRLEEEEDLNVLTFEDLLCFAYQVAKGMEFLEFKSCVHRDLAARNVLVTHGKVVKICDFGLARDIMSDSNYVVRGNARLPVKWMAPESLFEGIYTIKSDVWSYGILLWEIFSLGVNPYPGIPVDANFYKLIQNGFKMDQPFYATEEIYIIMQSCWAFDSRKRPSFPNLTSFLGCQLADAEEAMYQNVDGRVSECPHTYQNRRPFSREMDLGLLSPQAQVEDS
The test can be described thus: FLT3 LanthaScreen assay. In kind it is biochemical. The conditions noted are these: Table 4. The method in brief:
as §1

Each structure is given as a SMILES string. Bounds are passed on as bounds.

The term IC50 denotes the concentration needed to halve the response being measured. Take `Cn1ccc(-c2cn([C@@H]3O[C@H](C(=O)Nc4ccc5ccc(N6CCC6)nc5c4)[C@@H](O)[C@H]3O)c3ncnc(N)c23)n1` [Compound I-10, (2S,3S,4R,5R)-5-[4-amino-5-(1-methyl-1H-pyrazol-3-yl)-7H-pyrrolo[2,3-d]pyrimidin-7-yl]-N-[2-(azetidin-1-yl)quinolin-7-yl]-3,4-dihydroxyoxolane-2-carboxamide]: the IC50 in test [1] (Table 3) is under 10 nM; in test [2], under 1000 nM; in test [3] (Table 3) it was 10 to 100 nM.
The matching figures for `CNc1ccc2ccc(NC(=O)[C@H]3O[C@@H](n4cc(-c5ccn(C)n5)c5c(N)ncnc54)[C@H](O)[C@@H]3O)cc2n1` [Compound I-32, (2S,3S,4R,5R)-5-[4-amino-5-(1-methyl-1H-pyrazol-3-yl)-7H-pyrrolo[2,3-d]pyrimidin-7-yl]-3,4-dihydroxy-N-[2-(methylamino)quinolin-7-yl]oxolane-2-carboxamide]: under 10 nM, under 1000 nM and under 10 nM.
For `Cn1ccc(-c2cn([C@@H]3O[C@H](C(=O)NC[C@H]4CC[C@@H](O)CC4)[C@@H](O)[C@H]3O)c3ncnc(N)c23)n1` [Compound I-45, (2S,3S,4R,5R)-5-[4-amino-5-(1-methyl-1H-pyrazol-3-yl)-7H-pyrrolo[2,3-d]pyrimidin-7-yl]-3,4-dihydroxy-N-{[(1s,4s)-4-hydroxycyclohexyl]methyl}oxolane-2-carboxamide], the IC50 in test [1] (Table 4), in test [4], in test [5] and in test [3] (Table 4) was at least 1000 nM in each case.
As to `CN1CCC(NC(=O)[C@H]2C[C@@H](n3cc(-c4ccn(C)n4)c4c(N)ncnc43)[C@H](O)[C@@H]2O)CC1` [Compound I-44, (1S,2R,3S,4R)-4-[4-amino-5-(1-methyl-1H-pyrazol-3-yl)-7H-pyrrolo[2,3-d]pyrimidin-7-yl]-2,3-dihydroxy-N-(1-methylpiperidin-4-yl)cyclopentane-1-carboxamide], the IC50 in test [1] (Table 4) is 100 to 1000 nM; in test [4], at least 1000 nM; in test [5], at least 1000 nM; in test [3] (Table 4), 10 to 100 nM.
In the case of `CC(O)CCN(C(=O)[C@H]1O[C@@H](n2cc(-c3ccn(C)n3)c3c(N)ncnc32)[C@H](O)[C@@H]1O)C1CCN(C)CC1` (stereo partly shown) [Compound I-148], the half-inhibitory concentration (IC50) in test [1] (Table 4) was at least 1000 nM; in test [4] it was at least 1000 nM; in test [5], at least 1000 nM; in test [3] (Table 4), 10 to 100 nM.
For the compound `CC1CC(NC(=O)[C@H]2O[C@@H](n3cc(-c4ccn(C)n4)c4c(N)ncnc43)[C@H](O)[C@@H]2O)CCN1` (stereo in doubt) [Compound I-212], the IC50 in test [1] (Table 4) was 100 to 1000 nM; in test [4] it was at least 1000 nM; in test [5], at least 1000 nM; in test [3] (Table 4), 100 to 1000 nM.
In the case of `CN1CCC(N(CCC#N)C(=O)[C@H]2O[C@@H](n3cc(-c4ccn(C)n4)c4c(N)ncnc43)[C@H](O)[C@@H]2O)CC1` [Compound I-144], the IC50 in test [1] (Table 4) was 100 to 1000 nM; in test [4] it was at least 1000 nM; in test [5], at least 1000 nM; in test [3] (Table 4), 10 to 100 nM.
Take `CN1CCC(N(C(=O)[C@H]2O[C@@H](n3cc(-c4ccn(C)n4)c4c(N)ncnc43)[C@H](O)[C@@H]2O)C2CC2)CC1` [Compound I-149]: the IC50 in test [1] (Table 4) is 10 to 100 nM; in test [4] it was at least 1000 nM; in test [5], at least 1000 nM; in test [3] (Table 4), under 10 nM.
`CN1CCC(NC(=O)[C@H]2O[C@@H](n3cc(C4CCCO4)c4c(N)ncnc43)[C@H](O)[C@@H]2O)CC1` (stereo partly drawn) [Compound I-53, (2S,3S,4R,5R)-5-[4-amino-5-(oxolan-2-yl)-7H-pyrrolo[2,3-d]pyrimidin-7-yl]-3,4-dihydroxy-N-(1-methylpiperidin-4-yl)oxolane-2-carboxamide]: the IC50 in test [1] (Table 4) is 100 to 1000 nM; in test [4], at least 1000 nM; in test [5], at least 1000 nM; in test [3] (Table 4) it was 100 to 1000 nM.

The values above are taken from patent US20240051985A1, “METTL3 MODULATORS” (ACCENT THERAPEUTICS, INC., priority 2020, published 2024).
